Reference: PubChem BioAssay AID192 (DTP/NCI, 2004)
Where “and” joins values, the source holds several entries; their conditions need not be identical. Equal entries are not always repeated. Toxic doses and inconclusive results are not listed.

System: BDF1 mice, B16 melanoma ip, median survival T/C
Assay: NCI In Vivo Anticancer Drug Screen. Data for tumor model B16 Melanoma (intraperitoneal) in B6D2F1 (BDF1) mice
Settings: endpoint: median survival time, higher = longer survival
How it was run: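 Each result divides a survival or tumor-size measurement in the compound-treated group by the same measurement in the vehicle group.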

[1] = dose: 25.0 mg/kg/injection, schedule: Q01DX009 (ip), vehicle: Klucel (hydroxypropylcellulose) (HPC)
[2] = dose: 50.0 mg/kg/injection, schedule: Q01DX009 (ip), vehicle: Klucel (hydroxypropylcellulose) (HPC)
[3] = dose: 100.0 mg/kg/injection, schedule: Q01DX009 (ip), vehicle: Klucel (hydroxypropylcellulose) (HPC)
[4] = dose: 6.25 mg/kg/injection, schedule: Q01DX009 (ip), vehicle: saline with Tween-80
[5] = dose: 12.5 mg/kg/injection, schedule: Q01DX009 (ip), vehicle: saline with Tween-80
[6] = dose: 25.0 mg/kg/injection, schedule: Q01DX009 (ip), vehicle: saline with Tween-80
[7] = dose: 12.5 mg/kg/injection, schedule: Q01DX009 (ip), vehicle: Klucel (hydroxypropylcellulose) (HPC)
[8] = dose: 200.0 mg/kg/injection, schedule: Q01DX009 (ip), vehicle: Klucel (hydroxypropylcellulose) (HPC)
[9] = dose: 400.0 mg/kg/injection, schedule: Q01DX009 (ip), vehicle: Klucel (hydroxypropylcellulose) (HPC)
[10] = dose: 6.25 mg/kg/injection, schedule: Q01DX009 (ip), vehicle: saline
[11] = dose: 50.0 mg/kg/injection, schedule: Q01DX009 (ip), vehicle: saline with Tween-80
[12] = dose: 100.0 mg/kg/injection, schedule: Q01DX009 (ip), vehicle: saline with Tween-80
[13] = dose: 100.0 mg/kg/injection, schedule: Q04DX003 (ip), vehicle: Klucel (hydroxypropylcellulose) (HPC)
[14] = dose: 200.0 mg/kg/injection, schedule: Q04DX003 (ip), vehicle: Klucel (hydroxypropylcellulose) (HPC)
[15] = dose: 400.0 mg/kg/injection, schedule: Q04DX003 (ip), vehicle: Klucel (hydroxypropylcellulose) (HPC)
[16] = dose: 0.75 mg/kg/injection, schedule: Q01DX009 (ip), vehicle: saline

Compound: CC[C@@]1(O)C(=O)OCc2c1cc1n(c2=O)Cc2cc3cc(O)ccc3nc2-1
- T/C (dose: 0.2 mg/kg/injection, schedule: Q01DX009 (ip), vehicle: other): 157 % of control
- T/C (dose: 0.39 mg/kg/injection, schedule: Q01DX009 (ip), vehicle: other): 151 % of control
- T/C (dose: 0.79 mg/kg/injection, schedule: Q01DX009 (ip), vehicle: other): 179 % of control
- T/C (dose: 1.57 mg/kg/injection, schedule: Q01DX009 (ip), vehicle: other): 184 % of control

Compound: O=c1cc(-c2ccccc2)nc(Nc2nc3ccc([N+](=O)[O-])cc3[nH]2)[nH]1
- T/C [1]: 102 % of control
- T/C [2]: 90 % of control
- T/C [3]: 98 % of control and 103 % of control

Compound: Cc1ccc(NC(=O)Nc2cccc(Cl)c2C)cc1NC(=O)Nc1cccc(Cl)c1C
- T/C [4]: 94 % of control
- T/C [5]: 86 % of control
- T/C [6]: 88 % of control

Compound: COc1ccccc1N1C(=O)CSC1=S
- T/C [7]: 95 % of control
- T/C [1]: 105 % of control
- T/C [2]: 87 % of control
- T/C [3]: 105 % of control

Compound: O=C1C=C(Nc2ccccc2)c2ccccc2C1=O
- T/C [7]: 93 % of control
- T/C [1]: 105 % of control
- T/C [2]: 88 % of control
- T/C [3]: 87 % of control

Compound: O=C(NC(Cc1ccccc1)C(=O)CCl)OCc1ccccc1 (stereo not given)
- T/C [7]: 100 % of control
- T/C [1]: 97 % of control

Compound: CCn1c(O)c(C=N)c(=O)n(CC)c1=O
- T/C (dose: 150.0 mg/kg/injection, schedule: Q04DX003 (ip), vehicle: Klucel (hydroxypropylcellulose) (HPC)): 90 % of control

Compound: CC1(C)[C@H]2CC[C@@]1(C)C(=O)[C@H]2[N+](=O)[O-]
- T/C [3]: 114 % of control
- T/C [8]: 111 % of control
- T/C [9]: 108 % of control

Compound: N#Cc1c(F)c(F)c(C#N)c(F)c1F
- T/C (dose: 1.25 mg/kg/injection, schedule: Q01DX009 (ip), vehicle: saline with Tween-80): 90 % of control
- T/C (dose: 2.5 mg/kg/injection, schedule: Q01DX009 (ip), vehicle: saline with Tween-80): 90 % of control

Compound: Cc1ccc(S(=O)(=O)Nc2ncc([N+](=O)[O-])s2)cc1
- T/C (dose: 12.5 mg/kg/injection, schedule: Q04DX003 (ip), vehicle: saline with Tween-80): 102 % of control
- T/C (dose: 25.0 mg/kg/injection, schedule: Q04DX003 (ip), vehicle: saline with Tween-80): 109 % of control
- T/C (dose: 50.0 mg/kg/injection, schedule: Q04DX003 (ip), vehicle: saline with Tween-80): 109 % of control

Compound: CC(=O)C12OC1(C)CC1C3CC=C4CC(O)CCC4(C)C3CCC12C (stereo not given)
- T/C [3]: 107 % of control
- T/C [8]: 95 % of control
- T/C [9]: 105 % of control

Compound: NC(=O)c1ncn2c(=O)n(CCCl)nnc12
- T/C [10]: 158 % of control
- T/C (dose: 12.5 mg/kg/injection, schedule: Q01DX009 (ip), vehicle: saline): 216 % of control
- T/C (dose: 25.0 mg/kg/injection, schedule: Q01DX009 (ip), vehicle: saline): 207 % of control
- T/C (dose: 50.0 mg/kg/injection, schedule: Q01DX009 (ip), vehicle: saline): 96 % of control

Compound: COc1c([N+](=O)[O-])cc(C(=O)O)cc1[N+](=O)[O-]
- T/C [3]: 92 % of control
- T/C [8]: 92 % of control

Compound: Cc1ccccc1N(CC1CO1)CC1CO1 (stereo not given)
- T/C [11]: 152 % of control
- T/C [12]: 180 % of control

Compound: CCOC(=O)N1CCN(CCCCCOc2ccccc2C2CCCCC2)CC1
- T/C [11]: 103 % of control

Compound: O=C1NC(=S)S/C1=C\c1ccc(Cl)c(Cl)c1
- T/C [3]: 88 % of control
- T/C [13]: 88 % of control
- T/C [8]: 97 % of control
- T/C [14]: 93 % of control
- T/C [9]: 97 % of control
- T/C [15]: 88 % of control

Compound: CN=C(N)N/N=C(\C)c1ccc2c(c1)Cc1ccccc1-2
- T/C [5]: 110 % of control
- T/C [6]: 115 % of control
- T/C [11]: 120 % of control
- T/C [12]: 112 % of control

Compound: Cc1cccc(OCC(=O)O)c1
- T/C [4]: 106 % of control
- T/C [5]: 93 % of control
- T/C [6]: 86 % of control

Compound: Cc1c(Cl)cccc1NC(=O)Oc1ccc(Cl)cc1
- T/C [3]: 98 % of control
- T/C [8]: 101 % of control
- T/C [9]: 96 % of control

Compound: NCCNc1ccc(NCCN)c2c1C(=O)c1ccccc1C2=O
- T/C (dose: 4.0 mg/kg/injection, schedule: Q01DX009 (ip), vehicle: acid diluted with saline): 210 % of control
- T/C (dose: 8.0 mg/kg/injection, schedule: Q01DX009 (ip), vehicle: acid diluted with saline): 218 % of control

Compound: COc1ccccc1C(C#N)N1CCCN(C(C#N)c2ccccc2OC)C1c1cc(Cl)cc(Cl)c1O (stereo not given)
- T/C [4]: 104 % of control
- T/C [5]: 101 % of control
- T/C [6]: 103 % of control
- T/C [11]: 91 % of control and 124 % of control

Compound: COc1cc2c(cc1OC)/C(=N/N=C1\CCCc3cc(OC)c(OC)cc31)CCC2
- T/C (dose: 1.56 mg/kg/injection, schedule: Q01DX009 (ip), vehicle: water): 104 % of control
- T/C (dose: 3.13 mg/kg/injection, schedule: Q01DX009 (ip), vehicle: water): 100 % of control
- T/C (dose: 6.25 mg/kg/injection, schedule: Q01DX009 (ip), vehicle: water): 100 % of control
- T/C (dose: 12.5 mg/kg/injection, schedule: Q01DX009 (ip), vehicle: water): 95 % of control

Compound: COc1ccc2c(c1)C(=O)CCN2
- T/C [13]: 114 % of control
- T/C [14]: 107 % of control
- T/C [15]: 99 % of control

Compound: Cc1ccc(N2CSC(=S)N(c3ccc(C)cc3)C2)cc1
- T/C [3]: 86 % of control and 109 % of control
- T/C [8]: 86 % of control and 109 % of control
- T/C [9]: 102 % of control

Compound: O=C1NC2(CCCCC2)C(=O)N1CCN(CCCl)CCCl
- T/C [16]: 105 % of control and 107 % of control
- T/C (dose: 0.78 mg/kg/injection, schedule: Q01DX009 (ip), vehicle: saline): 95 % of control and 109 % of control and 263 % of control
- T/C (dose: 3.0 mg/kg/injection, schedule: Q01DX009 (ip), vehicle: saline): 107 % of control
- T/C (dose: 6.0 mg/kg/injection, schedule: Q01DX009 (ip), vehicle: saline with Tween-80): 168 % of control and 191 % of control
- T/C [10]: 152 % of control and 176 % of control

Compound: c1ccc([P+](C[P+](c2ccccc2)(c2ccccc2)c2ccccc2)(c2ccccc2)c2ccccc2)cc1
- T/C [16]: 87 % of control
- T/C (dose: 1.5 mg/kg/injection, schedule: Q01DX009 (ip), vehicle: saline): 93 % of control
